In assay [1] the target is COVID-19 (nCoV-2019, SARS-CoV2) Mpro (Severe acute respiratory syndrome coronavirus 2, UniProt P0DTD1). Nature of the assay: COVID-19 (nCoV-2019, SARS-CoV2) Mpro enzymatic assay. It is filed as biochemical. Particulars: 25 μM substrate.
In assay [2] the test system is HCov OC43. Nature of the assay: HCoV OC43 cytopathic effect (CPE) assay, CellTiter Glo. It counts as cell-based, human coronavirus (HCov) OC43. Particulars: Betacoronavirus 1, OC43, read-out: OC43 IC50 (uM) MEDIAN, median. (Protection from cytopathic effect is a common read-out in antiviral testing.)
Assay [3] concerns the target 229E Mpro (Human coronavirus 229E, UniProt P0C6X1). The assay is described as follows: 229E Mpro enzymatic assay (standard methods, SARS-CoV2 Mpro assay given as exemplary). It is filed as biochemical, human coronavirus (HCov) 229E. A digest of the protocol:
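IC50 for 229E Mpro by standard methods; exemplary SARS-CoV-2 protocol used C-His6-tagged Mpro from E. coli, 25 nM enzyme, 25 μM substrate (Km 13.5 μM), in Tris-HCl pH 7.3, NaCl, EDTA, TCEP, 0.1% BSA. Inhibition normalised to no-compound and full-effect controls; four-parameter fit.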

Where [4] appears, read: 25 nM Mpro, read-out: COVID-19 Mpro IC50.

The term IC50 denotes the concentration at which inhibition is half-maximal. The term EC50 denotes the concentration at which the effect is half-maximal.

Like-named read-outs stand apart in the source and are kept apart here.

Chain of 229E Mpro (P0C6X1 2966-3267): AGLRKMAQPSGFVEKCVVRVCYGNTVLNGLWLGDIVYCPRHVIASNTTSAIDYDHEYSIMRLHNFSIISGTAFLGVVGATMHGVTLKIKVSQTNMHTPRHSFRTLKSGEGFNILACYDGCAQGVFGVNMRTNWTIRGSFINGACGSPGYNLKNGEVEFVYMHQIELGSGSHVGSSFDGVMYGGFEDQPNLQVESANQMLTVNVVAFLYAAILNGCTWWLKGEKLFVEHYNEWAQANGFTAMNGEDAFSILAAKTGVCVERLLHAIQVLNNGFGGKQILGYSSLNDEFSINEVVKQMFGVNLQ

For `CC(C)(C)OC(=O)NC1CCN(C(=O)C(c2cccnc2)N(C(=O)[C@H]2CCCN2C#N)c2ccc(C(C)(C)C)cc2)CC1` (stereo partly drawn) [Compound 966b], the IC50 in assay [1] (setting [4]) and in assay [2] was 10 to 30 µM throughout. Besides, in assay [3] (229E Mpro EC50), the EC50 is 2 to 10 µM.
Take `CN(C)C1CN(C(=O)C(c2cccnc2)N(C(=O)[C@H]2CCCN2C#N)c2ccc(C(C)(C)C)cc2)C1` (stereo partly drawn) [Compound 975, (2R)—N-(4-(tert-butyl)phenyl)-1-cyano-N-(2-(3-(dimethylamino)azetidin-1-yl)-2-oxo-1-(pyridin-3-yl)ethyl)pyrrolidine-2-carboxamide]: the IC50 in assay [1] (setting [4]) and in assay [2] was 10 to 30 µM in each case. The EC50 in assay [3] (229E Mpro EC50) lay in the range of 2 to 10 µM.
With `Cc1ccncc1C(C(=O)NC1CCC(F)(F)CC1)N(C(=O)[C@H]1C[C@@](C)(O)CN1C#N)c1ccc(S(F)(F)(F)(F)F)cc1` (stereo partly drawn) [Compound 993c, (2R,4R)-1-cyano-N-[2-[(4,4-difluorocyclohexyl)amino]-1-(4-methyl-3-pyridyl)-2-oxo-ethyl]-4-hydroxy-4-methyl-N-[4-(pentafluoro-λ6-sulfanyl)phenyl]pyrrolidine-2-carboxamide], the IC50 in assay [1] (setting [4]) is below 2 µM; in assay [2] it was 2 to 10 µM. Moreover, the EC50 in assay [3] (229E Mpro EC50) was below 2 µM.
Take `Cc1ccnc(C)c1C(C(=O)NC1CCC(F)(F)CC1)N(C(=O)[C@H]1C[C@@](C)(O)CN1C#N)c1ccc(S(F)(F)(F)(F)F)cc1` (stereo partly drawn) [Compound 997c, (2R,4R)-1-cyano-N-[2-[(4,4-difluorocyclohexyl)amino]-1-(2,4-dimethyl-3-pyridyl)-2-oxo-ethyl]-4-hydroxy-4-methyl-N-[4-(pentafluoro-λ^6-sulfanyl)phenyl]pyrrolidine-2-carboxamide]: the IC50 in assay [1] (setting [4]) is 10 to 30 µM; in assay [2], 2 to 10 µM. In addition, the EC50 in assay [3] (229E Mpro EC50) was below 2 µM.
The matching figures for `CC(C(=O)NC1CCC(F)(F)CC1)(c1cccnc1)N(C(=O)[C@H]1C[C@@](C)(O)CN1C#N)c1ccc(S(F)(F)(F)(F)F)cc1` (stereo partly drawn) [Compound 1077, (2R,4R)-1-cyano-N-[2-[(4,4-difluorocyclohexyl)amino]-1-methyl-2-oxo-1-(3-pyridyl)ethyl]-4-hydroxy-4-methyl-N-[4-(pentafluoro-λ^6-sulfanyl)phenyl]pyrrolidine-2-carboxamide]: below 2 µM, below 2 µM and below 2 µM.
On to `N#CN1C[C@H]2C[C@H]2[C@@H]1C(=O)N(c1ccc(S(F)(F)(F)(F)F)cc1)C(C(=O)NC1CCC(F)(F)CC1)c1cncc(F)c1` (stereo partly drawn) [Compound 1095b, (1R,2R,5S)-3-cyano-N-[2-[(4,4-difluorocyclohexyl)amino]-1-(5-fluoro-3-pyridyl)-2-oxo-ethyl]-N-[4-(pentafluoro-λ^6-sulfanyl)phenyl]-3-azabicyclo[3.1.0]hexane-2-carboxamide], for which the IC50 in assay [1] (setting [4]) and in assay [2] was below 2 µM each time. Moreover, the EC50 in assay [3] (229E Mpro EC50) is below 2 µM.
Consider `N#CN1C2CCC1(C(=O)N(c1ccc(S(F)(F)(F)(F)F)cc1)C(C(=O)NC1CCC(F)(F)CC1)c1cncc(F)c1)CC2` (stereo not drawn) [Compound 1101, 7-cyano-N-[2-[(4,4-difluorocyclohexyl)amino]-1-(5-fluoro-3-pyridyl)-2-oxo-ethyl]-N-[4-(pentafluoro-λ6-sulfanyl)phenyl]-7-azabicyclo[2.2.1]heptane-1-carboxamide], for which the half-inhibitory concentration (IC50) in assay [1] (COVID-19 Mpro IC50, 25 nM Mpro) is above 30 µM; in assay [2], above 30 µM. In addition, the EC50 in assay [3] (read-out: 229E Mpro EC50) was 2 to 10 µM.
For the molecule `O=C1CCCCC1C(=O)N(c1ccc(S(F)(F)(F)(F)F)cc1)C(C(=O)NC1CCC(F)(F)CC1)c1cncc(F)c1` (stereo not drawn) [Compound 1114], the IC50 in assay [1] (setting [4]) was 10 to 30 µM; in assay [2] it was above 30 µM. This molecule registered an EC50 in assay [3] (229E Mpro EC50) of 2 to 10 µM.
Taken in the same sequence, the figures for `CO[C@@H]1C[C@H](C(=O)N(c2ccc(S(F)(F)(F)(F)F)cc2)C(C(=O)NC(C)C2CCCCN2)c2cccnc2)N(C#N)C1` (stereo partly drawn) [Compound 1123, (2R,4R)-1-cyano-4-methoxy-N-[2-oxo-2-[1-(2-piperidyl)ethylamino]-1-(3-pyridyl)ethyl]-N-[4-(pentafluoro-λ^6-sulfanyl)phenyl]pyrrolidine-2-carboxamide] were below 2 µM, below 2 µM and below 2 µM.
For `O=C(NC1CCC(F)(F)CC1)C(c1cncc(F)c1)N(C(=O)C1CCC1(O)O)c1ccc(S(F)(F)(F)(F)F)cc1` (stereo not drawn) [Compound 1133a, N-[2-[(4,4-difluorocyclohexyl)amino]-1-(5-fluoro-3-pyridyl)-2-oxo-ethyl]-2,2-dihydroxy-N-[4-(pentafluoro-λ6-sulfanyl)phenyl]cyclobutanecarboxamide], the IC50 in assay [1] (setting [4]) and in assay [2] was above 30 µM throughout. In addition, in assay [3] (229E Mpro EC50), the EC50 is above 30 µM.
Turning to `COC1CN(C#N)C(C)(C(=O)N(c2ccc(S(F)(F)(F)(F)F)cc2)C(C(=O)NC2CCC(F)(F)CC2)c2cncc(F)c2)C1` (stereo not drawn) [Compound 1135b, 1-cyano-N-[2-[(4,4-difluorocyclohexyl)amino]-1-(5-fluoro-3-pyridyl)-2-oxo-ethyl]-4-methoxy-2-methyl-N-[4-(pentafluoro-λ^6-sulfanyl)phenyl]pyrrolidine-2-carboxamide], the IC50 in assay [1] (setting [4]) and in assay [2] was above 30 µM each time. Further, the EC50 in assay [3] (229E Mpro EC50) was above 30 µM.
`N#CN1CC2C[C@@]1(C(=O)N(c1ccc(S(F)(F)(F)(F)F)cc1)C(C(=O)NC1CCC(F)(F)CC1)c1cncc(F)c1)CO2` (stereo partly drawn) [Compound 1136b]: the IC50 was 2 to 10 µM in assay [1] (setting [4]) and above 30 µM in assay [2]. Besides, the EC50 in assay [3] (229E Mpro EC50) was in the range of 2 to 10 µM.
On to `CO[C@@H]1C[C@H](C(=O)N(c2ccc(S(F)(F)(F)(F)F)cc2)C(C(=O)N2CCN(C(=O)OC(C)(C)C)CC2)c2cccnc2)N(C#N)C1` (stereo partly drawn) [Compound 1149b, tert-butyl-4-[2-[N-[(2R,4R)-1-cyano-4-methoxy-pyrrolidine-2-carbonyl]-4-(pentafluoro-λ6-sulfanyl)anilino]-2-(3-pyridyl)acetyl]piperazine-1-carboxylate], for which the IC50 in assay [1] (setting [4]) and in assay [2] was below 2 µM throughout. In assay [3] (229E Mpro EC50), the EC50 is below 2 µM.
With `C[C@@]1(O)C[C@H](C(=O)N(c2ccc(S(F)(F)(F)(F)F)cc2)C(C(=O)NC2CCC(F)(F)CC2)c2cccnc2F)N(C#N)C1` (stereo partly drawn) [Compound 1158, (2R,4R)-1-cyano-N-[2-[(4,4-difluorocyclohexyl)amino]-1-(2-fluoro-3-pyridyl)-2-oxo-ethyl]-4-hydroxy-4-methyl-N-[4-(pentafluoro-λ6-sulfanyl)phenyl]pyrrolidine-2-carboxamide], the IC50 in assay [1] (setting [4]) and in assay [2] was below 2 µM each time. In assay [3] (229E Mpro EC50), this molecule displayed an EC50 below 2 µM.
As for `N#CN1CC(=O)NCC1C(=O)N(c1ccc(S(F)(F)(F)(F)F)cc1)C(C(=O)NC1CCC(F)(F)CC1)c1cncc(F)c1` (stereo not drawn) [Compound 1160, 1-cyano-N-[2-[(4,4-difluorocyclohexyl)amino]-1-(5-fluoro-3-pyridyl)-2-oxo-ethyl]-5-oxo-N-[4-(pentafluoro-λ^6-sulfanyl)phenyl]piperazine-2-carboxamide], the IC50 in assay [1] (setting [4]) and in assay [2] was below 2 µM throughout. This molecule came in with an EC50 in assay [3] (229E Mpro EC50) below 2 µM.
In the case of `CN1CC(C(=O)N(c2ccc(S(F)(F)(F)(F)F)cc2)C(C(=O)NC2CCC(F)(F)CC2)c2cncc(F)c2)N(C#N)CC1=O` (stereo not drawn) [Compound 1161, 1-cyano-N-[2-[(4,4-difluorocyclohexyl)amino]-1-(5-fluoro-3-pyridyl)-2-oxo-ethyl]-4-methyl-5-oxo-N-[4-(pentafluoro-λ^6-sulfanyl)phenyl]piperazine-2-carboxamide], the IC50 in assay [1] (setting [4]) and in assay [2] was below 2 µM each time. Further, in assay [3] (229E Mpro EC50), the concentration for a half-maximal effect (EC50) is below 2 µM.
In the case of `CO[C@@H]1C[C@H](C(=O)N(c2ccc(S(F)(F)(F)(F)F)cc2)C(C(=O)N2CCC3(COC3)C2)c2cccnc2)N(C#N)C1` (stereo partly drawn) [Compound 1174, (2R,4R)-1-cyano-4-methoxy-N-[2-(2-oxa-7-azaspiro[3.4]octan-7-yl)-2-oxo-1-(3-pyridyl)ethyl]-N-[4-(pentafluoro-λ^6-sulfanyl)phenyl]pyrrolidine-2-carboxamide], the IC50 in assay [1] (setting [4]) was 2 to 10 µM; in assay [2] it was below 2 µM. For the same molecule, the EC50 in assay [3] (229E Mpro EC50) was below 2 µM.
Turning to `CO[C@@H]1C[C@H](C(=O)N(c2ccc(S(F)(F)(F)(F)F)cc2)C(C(=O)NCC(=O)N2CCCC2)c2cccnc2)N(C#N)C1` (stereo partly drawn) [Compound 1182, (2R,4R)-1-cyano-4-methoxy-N-[2-oxo-2-[(2-oxo-2-pyrrolidin-1-yl-ethyl)amino]-1-(3-pyridyl)ethyl]-N-[4-(pentafluoro-λ6-sulfanyl)phenyl]pyrrolidine-2-carboxamide], the IC50 in assay [1] (setting [4]) and in assay [2] was below 2 µM in each case. The molecule further registered an EC50 in assay [3] (229E Mpro EC50) below 2 µM.
Take `CO[C@@H]1C[C@H](C(=O)N(c2ccc(S(F)(F)(F)(F)F)cc2)C(C(=O)N2CCN(C)C(=O)C2)c2cccnc2)N(C#N)C1` (stereo partly drawn) [Compound 1188]: the IC50 is 2 to 10 µM in assay [1] (setting [4]) and below 2 µM in assay [2]. In assay [3] (229E Mpro EC50), the EC50 is below 2 µM.
Turning to `CO[C@@H]1C[C@H](C(=O)N(c2ccc(S(F)(F)(F)(F)F)cc2)C(C(=O)NC2CCC(F)(F)CC2)c2cnccc2C#N)N(C#N)C1` (stereo partly drawn) [Compound 1200, (2R,4R)-1-cyano-N-[l-(4-cyano-3-pyridyl)-2-[(4,4-difluorocyclohexyl)amino]-2-oxo-ethyl]-4-methoxy-N-[4-(pentafluoro-λ6-sulfanyl)phenyl]pyrrolidine-2-carboxamide], the IC50 in assay [1] (setting [4]) and in assay [2] was below 2 µM throughout. In assay [3] (229E Mpro EC50), this molecule gave a concentration for a half-maximal effect (EC50) below 2 µM.

For the origin of these results see US20220380347A1, “INHIBITORS OF CYSTEINE PROTEASES AND METHODS OF USE THEREOF” (Pardes Biosciences, Inc., priority 2020, published 2022).
